# Measurements from patent US8802597B2, “Herbicidal pyrimidines” (E I du Pont de Nemours and Company, priority 2003, dated 2014).
# How the values were obtained:
# Type in all cases: in vivo
# [1] = system: morningglory (Ipomoea spp.); test: Test A pre/postemergence
# Outline: (§1)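 Greenhouse herbicide test with preemergence directed soil spray and postemergence foliar spray at the 1- to 2-leaf stage; visual control rating 0–100 versus untreated at ~10 days.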
# [2] = system: giant foxtail (Setaria faberi); test: Test A pre/postemergence
# Outline: as §1
# [3] = system: velvetleaf (Abutilon theophrasti); test: Test A pre/postemergence
# Outline: as §1
# [4] = system: redroot pigweed (Amaranthus retroflexus); test: Test A pre/postemergence
# Outline: as §1
# wild oat (Avena fatua) = test: Test C postemergence
# Outline: (§2)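 Pre: seeds planted, sprayed same day. Post: 1- to 4-leaf plants (2–18 cm). Formulation: non-phytotoxic solvent + surfactant. Greenhouse 12–14 d; visual % control vs untreated, 0–100.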
# [5] = system: blackgrass (Alopecurus myosuroides); test: Test C postemergence
# Outline: as §2
# [6] = system: downy brome (Bromus tectorum); test: Test C postemergence
# Outline: as §2
# [7] = system: green foxtail (Setaria viridis); test: Test C postemergence
# Outline: as §2
# [8] = system: winter barley (Hordeum vulgare); test: Test C postemergence; conditions: for Barley plant response rating: scale 0 to 100 (0 no effect, 100 complete control)
# Outline: as §2
# [9] = system: windgrass (Apera spica-venti); test: Test C postemergence
# Outline: as §2
# [10] = system: Italian ryegrass (Lolium multiflorum); test: Test C postemergence
# Outline: as §2
# [11] = system: canarygrass (Phalaris minor); test: Test C postemergence
# Outline: as §2
# [12] = system: wheat (Triticum aestivum); test: Test C postemergence
# Outline: as §2
# [13] = Postemergence, 125 g ai/ha, 0 to 100 scale (0 no effect, 100 complete control)
# [14] = Postemergence, 500 g ai/ha, 0 to 100 scale (0 no effect, 100 complete control)
# [15] = Preemergence, 125 g ai/ha, 0 to 100 scale where 0 is no effect and 100 is complete control, approximately ten days
# [16] = Preemergence, 500 g ai/ha, 0 to 100 scale where 0 is no effect and 100 is complete control, approximately ten days
# [17] = 125 g ai/ha, scale 0 to 100 (0 no effect, 100 complete control)
smiles,measurement,setting,value
COC(=O)c1nc(-c2ccc(Br)cc2)nc(N)c1Br [Compound 129],"Plant response rating, Morningglory",[1]; [13],60
same,"Plant response rating, Morningglory",[1]; [14],70
same,"Plant response rating, Morningglory",[1]; [15],0
same,"Plant response rating, Morningglory",[1]; [16],0
same,"Plant response rating, Foxtail, Giant",[2]; [13],0
same,"Plant response rating, Foxtail, Giant",[2]; [14],0
same,"Plant response rating, Foxtail, Giant",[2]; [15],0
same,"Plant response rating, Foxtail, Giant",[2]; [16],0
same,"Plant response rating, Velvetleaf",[3]; [13],80
same,"Plant response rating, Velvetleaf",[3]; [14],90
same,"Plant response rating, Velvetleaf",[3]; [15],0
same,"Plant response rating, Velvetleaf",[3]; [16],5
same,"Plant response rating, Pigweed",[4]; [13],80
same,"Plant response rating, Pigweed",[4]; [14],85
same,"Plant response rating, Pigweed",[4]; [15],0
same,"Plant response rating, Pigweed",[4]; [16],15
same,"Plant response rating (scale of 0 to 100), Oat, Wild",wild oat (Avena fatua); 16 g ai/ha,30
same,"Plant response rating (scale of 0 to 100), Oat, Wild",wild oat (Avena fatua); 31 g ai/ha,35
same,"Plant response rating (scale of 0 to 100), Oat, Wild",wild oat (Avena fatua); 62 g ai/ha,40
same,"Oat, Wild plant response rating",wild oat (Avena fatua); [17],40
same,"Plant response rating (scale of 0 to 100), Blackgrass",[5]; 16 g ai/ha,35
same,"Plant response rating (scale of 0 to 100), Blackgrass",[5]; 31 g ai/ha,45
same,"Plant response rating (scale of 0 to 100), Blackgrass",[5]; 62 g ai/ha,50
same,Blackgrass plant response rating,[5]; [17],50
same,"Plant response rating (scale of 0 to 100), Bromegrass, Downy",[6]; 16 g ai/ha,0
same,"Plant response rating (scale of 0 to 100), Bromegrass, Downy",[6]; 31 g ai/ha,0
same,"Plant response rating (scale of 0 to 100), Bromegrass, Downy",[6]; 62 g ai/ha,0
same,"Bromegrass, Downy plant response rating",[6]; [17],0
same,"Plant response rating (scale of 0 to 100), Foxtail, Green",[7]; 16 g ai/ha,40
same,"Plant response rating (scale of 0 to 100), Foxtail, Green",[7]; 31 g ai/ha,40
same,"Plant response rating (scale of 0 to 100), Foxtail, Green",[7]; 62 g ai/ha,40
same,"Foxtail, Green plant response rating",[7]; [17],60
same,"Plant response rating (scale of 0 to 100), Barley",[8]; 16 g ai/ha,35
same,"Plant response rating (scale of 0 to 100), Barley",[8]; 31 g ai/ha,40
same,Barley plant response rating,[8]; 62 g ai/ha,45
same,Barley plant response rating,[8]; 125 g ai/ha,45
same,"Plant response rating (scale of 0 to 100), Windgrass",[9]; 16 g ai/ha,40
same,"Plant response rating (scale of 0 to 100), Windgrass",[9]; 31 g ai/ha,45
same,"Plant response rating (scale of 0 to 100), Windgrass",[9]; 62 g ai/ha,60
same,Windgrass plant response rating,[9]; [17],60
same,"Plant response rating (scale of 0 to 100), Ryegrass, Italian",[10]; 16 g ai/ha,45
same,"Plant response rating (scale of 0 to 100), Ryegrass, Italian",[10]; 31 g ai/ha,55
same,"Plant response rating (scale of 0 to 100), Ryegrass, Italian",[10]; 62 g ai/ha,55
same,"Ryegrass, Italian plant response rating",[10]; [17],60
same,"Plant response rating (scale of 0 to 100), Canarygrass",[11]; 16 g ai/ha,0
same,"Plant response rating (scale of 0 to 100), Canarygrass",[11]; 31 g ai/ha,30
same,"Plant response rating (scale of 0 to 100), Canarygrass",[11]; 62 g ai/ha,30
same,Canarygrass plant response rating,[11]; [17],30
same,"Plant response rating (scale of 0 to 100), Wheat",[12]; 16 g ai/ha,0
same,"Plant response rating (scale of 0 to 100), Wheat",[12]; 31 g ai/ha,35
same,"Plant response rating (scale of 0 to 100), Wheat",[12]; 62 g ai/ha,35
same,Wheat plant response rating,[12]; [17],35
